Experiments:
Assay type in all cases: cell-based
human β3-adrenoceptor = target: T1, human β3-adrenoceptor (Homo sapiens, UniProt P13945); assay: Measurement of agonistic activities on human β3-adrenoceptor (cAMP accumulation in SK-N-MC cells); conditions: for EC50: SK-N-MC cells with CGP-20712A, cAMP, concentration giving 50% of the maximum reaction of isoproterenol, read-out: β3 receptor EC50; for Emax: SK-N-MC cells, maximum reaction relative to maximum reaction of isoproterenol (100%), read-out: β3 receptor I.A. (intrinsic activity)
T1 construct: SK—N-MC cells (American Type Culture Collection, 1×10^5cell/mL) were put in 96 well plates; host or cells: SK-N-MC cells
T1 sequence (P13945 whole entry): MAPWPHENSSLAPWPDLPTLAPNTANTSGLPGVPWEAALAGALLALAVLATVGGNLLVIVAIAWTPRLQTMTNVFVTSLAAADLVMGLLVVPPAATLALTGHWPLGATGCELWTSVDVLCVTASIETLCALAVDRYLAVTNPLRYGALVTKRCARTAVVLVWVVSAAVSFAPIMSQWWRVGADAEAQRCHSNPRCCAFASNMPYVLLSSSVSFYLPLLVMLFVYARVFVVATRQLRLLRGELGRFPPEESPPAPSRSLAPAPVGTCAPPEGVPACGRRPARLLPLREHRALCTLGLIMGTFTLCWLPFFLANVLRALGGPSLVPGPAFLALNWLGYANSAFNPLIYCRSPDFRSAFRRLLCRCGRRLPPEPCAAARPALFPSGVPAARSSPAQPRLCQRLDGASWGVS
Description: Measurement of Agonistic Activities on Human β3-Adrenoceptor
Test compounds were dissolved in 50% dimethyl sulfoxide to make a 10^−2 M solution. Then, a series of 1:10 dilutions containing a maximal dose of 1×10^−4 M were prepared using D-PBS (−) (Gibco-BRL: LIFE TECHNOLOGIES). The series were used for a testing sample to measure activity. SK—N-MC cells (American Type Culture Collection, 1×10^5cell/mL) were put in 96 well plates by 100 μL and were cultured for about 24 hours. Forty μL of D-PBS and 20 μL of CGP-20712A (FUNAKOSHI, 3×10^−6 mol/L D-PBS solution) were added in them and incubated for 20 minutes. After that, 20 μL of 3-isobutyl-1-methylxanthine (SIGMA, 1×10^−2 mol/L D-PBS solution) and 20 μL of testing sample were added in them and they were incubated under an atmosphere of 5% CO2 at 37° C. for 30 minutes. cAMP concentrations accumulated in cells were reacted in cAMP-Screen (Applied Biosystems) and were detected by Microplate Luminometer TR717 (Applied Biosystems). The maximum reaction of isoproterenol, a positive contrast, was taken as a 100%, and the concentration of a test compound which gave reaction of the 50% was calculated as an EC50 value. In addition, the ratio of the maximum reaction of the test compound against the maximum reaction of isoproterenol was calculated as an intrinsic activity (I.A.). (R)-3′-[[2-[[2-(3-chlorophenyl)-2-hydroxyethyl]aminoethoxy]-[1,1′-biphenyl]-3-carboxylic acid which was described in WO99/65877 was also examined as a comparison example.

human β2-adrenoceptor = target: T2, human β2-adrenoceptor (Homo sapiens, UniProt P07550, E27Q/G16R); assay: Measurement of agonistic activities on human β2-adrenoceptor (cAMP accumulation in transfected CHO cells); conditions: CHO cells expressing human β2-adrenoceptor; for EC50: cAMP, concentration giving 50% of the maximum reaction of isoproterenol, read-out: β2 receptor EC50; for Emax: maximum reaction relative to isoproterenol (100%), read-out: β2 receptor I.A. (intrinsic activity)
T2 construct: expressed in transfected cells; host or cells: CHO cells (transient transfection, Lipofectamine 2000)
T2 sequence (P07550 whole entry G16R/E27Q): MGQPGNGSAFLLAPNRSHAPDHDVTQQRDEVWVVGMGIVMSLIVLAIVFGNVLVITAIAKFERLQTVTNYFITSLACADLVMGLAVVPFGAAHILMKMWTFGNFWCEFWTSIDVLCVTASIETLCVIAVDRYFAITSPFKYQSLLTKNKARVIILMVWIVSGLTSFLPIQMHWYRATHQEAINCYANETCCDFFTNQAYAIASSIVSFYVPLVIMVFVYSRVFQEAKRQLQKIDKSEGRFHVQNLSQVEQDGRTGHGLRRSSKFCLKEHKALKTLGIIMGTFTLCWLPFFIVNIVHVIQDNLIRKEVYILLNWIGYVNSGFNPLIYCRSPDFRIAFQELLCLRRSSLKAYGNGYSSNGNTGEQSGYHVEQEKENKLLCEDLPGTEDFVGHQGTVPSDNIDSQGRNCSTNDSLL
Source text: (§1) Measurement of Agonistic Activities on Human β1- and β2-Adrenoceptors
The primer which added a restriction enzyme recognition region to 5′ end was designed on the basis of the base information that is registered with GenBank/EMBL data base as Accession No. M15169, and the clone was obtained by performance of PCR using human bladder origin cDNA as a template. The clone was inserted into pGEM-T vector and was amplified in Escherichia coli bacteria as a plasmid, and it was purified and the sequence of full length and around of insertion sequence determined by means of 310 Genetic Analyzer (ABI).
2) Preparation of Human β2-Adreoceptor Expressed Cells
(§2) The plasmid (80 ng) for expression obtained in the previous section was transfected into 5×10^4 CHO cells suspended in DMEM (Gibco-BRL: LIFE TECHNOLOGIES) containing 10% fetal bovine serum (Sanko Junyaku) by means of Lipofectoamine2000 (Invitrogen). These cells were dispensed in 96 well plate by 5×10^4 cells/100 μL per well and were cultured under an atmosphere of 5% CO2 at 37° C. for 24 hours, and were used for the assay.
(§3) 3. Measurement of Agonistic Activities on Human β1- and β2-Adrenoceptors
(§4) Test compounds were dissolved in 50% dimethyl sulfoxide to make a 10^−2 M solution. Then, a series of 1:10 dilutions containing a maximal dose of 2×10^−4 M were prepared using D-PBS (−) (Gibco-BRL: LIFE TECHNOLOGIES). The series were used for a testing sample to measure activity. The culture medium of CHO cells of previous section was removed and washed twice with 200 μL D-PBS (−) per well. After that, 50 μL of 3-isobutyl-1-methylxanthine (SIGMA, 1 mM) was added and leaved at rest for 5 minutes, and 50 μL of testing sample were added in them and they were incubated under an atomosphere of 5% CO2 at 37° C. for 30 minutes. cAMP concentrations accumulated in cells were reacted in cAMP-Screen (Applied Biosystems) and were detected by Microplate Luminometer TR717 (Applied Biosystems). The maximum reaction of isoproterenol, a positive contrast, was taken as a 100%, and the concentration of a test compound which gave reaction of the 50% was calculated as an EC50 value. In addition, the ratio of the maximum reaction of the test compound against the maximum reaction of isoproterenol was calculated as an intrinsic activity (I.A.).
(§5) (R)-3′-[[2-[[2-(3-chlorophenyl)-2-hydroxyethyl]aminoethoxy]-[1,1′-biphenyl]-3-carboxylic acid which was described in WO99/65877 was also examined as a comparison example.

human β1-adrenoceptor = target: T3, human β1-adrenoceptor (Homo sapiens, UniProt P08588); assay: Measurement of agonistic activities on human β1-adrenoceptor (cAMP accumulation in transfected CHO cells); conditions: CHO cells expressing human β1-adrenoceptor; for Emax: maximum reaction relative to isoproterenol (100%), read-out: β1 receptor I.A. (intrinsic activity); for EC50: cAMP, concentration giving 50% of the maximum reaction of isoproterenol, read-out: β1 receptor EC50
T3 construct: Both ends of a domain including full length of human β1-adrenoceptor were amplified; expressed in transfected cells; host or cells: CHO cells (transient transfection of pCI-neo plasmid, Lipofectamine 2000)
T3 sequence (P08588 whole entry): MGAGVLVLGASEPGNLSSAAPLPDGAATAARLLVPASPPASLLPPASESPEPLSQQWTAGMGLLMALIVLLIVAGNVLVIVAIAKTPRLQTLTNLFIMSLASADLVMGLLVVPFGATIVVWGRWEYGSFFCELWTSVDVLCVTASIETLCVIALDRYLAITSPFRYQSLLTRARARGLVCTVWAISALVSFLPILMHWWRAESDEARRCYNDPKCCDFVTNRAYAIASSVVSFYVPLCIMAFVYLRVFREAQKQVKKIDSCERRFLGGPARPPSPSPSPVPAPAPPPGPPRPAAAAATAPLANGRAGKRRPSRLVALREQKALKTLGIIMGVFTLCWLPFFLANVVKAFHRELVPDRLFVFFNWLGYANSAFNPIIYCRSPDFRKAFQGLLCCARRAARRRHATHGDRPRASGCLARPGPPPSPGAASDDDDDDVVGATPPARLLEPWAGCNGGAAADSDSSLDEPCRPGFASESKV
Source text: as §1
Both ends of a domain including full length of human β1-adrenoceptor were amplified on the basis of DNA base information that is registered with GenBank/EMBL data base as Accession No. J03019. DNA fragment which was amplified was inserted into a vector for cloning and amplified in Escherichia coli bacteria. The plasmid which was cloned was inserted into a vector pCI-neo (Promega) for protein expression and plasmid DNA was extracted and purified, then it was used for a preparation of the following expression cells.
1) Preparation of Human β1-Adrenoceptor Expressed Cells
as §2, with “(320” for “(80”, “expression which was” for “expression”
as §3, §4, §5

| Structure (SMILES) | EC50 (human β3-adrenoceptor) [nM] | Emax (human β3-adrenoceptor) [%] | EC50 (human β2-adrenoceptor) [nM] | Emax (human β2-adrenoceptor) [%] | Emax (human β1-adrenoceptor) [%] | EC50 (human β1-adrenoceptor) [nM] |
| --- | --- | --- | --- | --- | --- | --- |
| Cc1cc(-c2ccc(OCC(=O)O)cc2)cc(C)c1OCCN[C@@H](C)[C@H](O)c1ccc(O)c(NS(C)(=O)=O)c1 [Compound 9, (4′-{2-[(1S,2R)-2-Hydroxy-2-(4-hydroxy-3-methanesulfonylaminophenyl)-1-methylethylamino]ethoxy}-3′,5′-dimethylbiphenyl-4-yloxy)acetic acid] | 14.2 | 222 | 200 | 60 | 49 | – |
| CS(=O)(=O)Nc1cc([C@@H](O)CNCCOc2ccc(-c3ccc(C(=O)O)c(C(=O)O)c3)cc2)ccc1O [Compound 21, 4′-{2-[(R)-2-Hydroxy-2-(4-hydroxy-3-methanesulfonylaminophenyl)ethylamino]ethoxy}biphenyl-3,4-dicarboxylic acid] | 57.1 | 154 | 4490 | 61 | 86 | 9330 |
| CCOc1cc(-c2ccc(OCCNC[C@H](O)c3ccc(O)c(NS(C)(=O)=O)c3)cc2)ccc1C(=O)O [Compound 28, 3-Ethoxy-4′-{2-[(R)-2-hydroxy-2-(4-hydroxy-3-methanesulfonylaminophenyl)ethylamino]ethoxy}biphenyl-4-carboxylic acid] | 19.3 | 112 | – | 27 | 85 | 1670 |
| O=C(O)c1cccc(-c2cccc(OCCNC[C@H](O)c3cccc(Cl)c3)c2)c1 [comparison, reference compound] | – | 27 | – | 15 | 60 | 742 |

Source: patent US7417169B2, “Amino alcohol derivatives, medicinal composition containing the same, and use of these” (Kissei Pharmaceutical Co., Ltd., priority 2003, dated 2008)
